Laboratory results taken from patent publication US9969726B2, “Metabotropic glutamate receptor negative allosteric modulators (NAMS) and uses thereof” (Sanford-Burnham Medical Research Institute, priority 2014, dated 2018).
Like-named read-outs stand apart in the source and are kept apart here.

What was measured:
rat mGlu2 receptor = rat mGlu2 receptor (Rattus norvegicus (Rat), UniProt P31421); assay: mGlu2 in vitro GIRK thallium flux assay; assay type: cell-based; settings: NAM, EC80 glutamate, HEK-293 GIRK cells
How it was run: (§1)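 Cells expressing rat mGlu2 or mGlu3 with GIRK, plated overnight at 37 °C. Test compounds (0.3% DMSO, 10-point 1:3 series) preincubated 2.5 or 60 min, then thallium buffer plus EC80 glutamate added. Fluorescence slope 5–15 s after addition, normalised to vehicle and maximal agonist, fitted by four-parameter logistic.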

rat mGlu3 receptor = rat mGlu3 receptor (Rattus norvegicus (Rat), UniProt P31422); assay: mGlu3 in vitro GIRK thallium flux assay; assay type: cell-based; settings: NAM; 2.5 min compound incubation; EC80 glutamate; HEK-293 GIRK cells
How it was run: as §1

[1] = Microsomal stability in vitro assay; assay type: in vitro ADME; settings: rat liver microsomes 1 mg/mL, 4 μM compound, 2 mM NADPH
Protocol: Pooled rat liver microsomes (BD Biosciences, #452701) were preincubated with test compounds at 37.5° C. for 5 min in the absence of NADPH. The reaction was initiated by addition of NADPH and incubated under the same conditions. The final incubation concentrations were 4 μM test compound, 2 mM NADPH, and 1 mg/mL (total protein) liver microsomes in phosphate-buffered saline (PBS) at pH 7.4. One aliquot (100 μL) of the incubation mixture was withdrawn at 15 min time points and combined immediately with 100 μL of ACN/MeOH. After mixing, the sample was centrifuged at approximately 13000 rpm for 12 min. The supernatant was filtered and transferred into an autosampler vial and the amount of test compound was quantified using a Shimadzu LCMS 2010EV mass spectrometer. The change of the AUC (area under the curve) of the parent compound as a function of time was used as a measure of microsomal stability. Test compounds were run in duplicate with a positive control.

[2] = Plasma stability in vitro assay; assay type: in vitro ADME; settings: rat plasma, 100 μM, 37.5° C.
Protocol: A 20 μL aliquot of a 10 mM solution in DMSO of the test compound was added to 2.0 mL of heparinized rat plasma (Lampire, P1-150N) to obtain a 100 μM final solution. The mixture was incubated for 1 h at 37.5° C. Aliquots of 100 μL were taken at 15 min intervals and diluted with 100 μL of MeOH/ACN. After mixing, the sample was centrifuged at approximately 13000 rpm for 12 min. The supernatant was filtered and transferred into an autosampler vial and the amount of test compound was quantified using the Shimadzu LCMS-2010EV system. The change of the AUC of the parent compound in function of time was used as a measure of plasma stability.

[3] = 2.5 min compound incubation, read-out: mGlu2 EC50 (μM) (2.5 min)
[4] = mGlu2 EC50 (μM) (60 min), 60 min compound incubation
[5] = read-out: mGlu2 EC50 (μM) (60 min), 60 min compound incubation

Sequence of rat mGlu2 receptor (P31421 19-872): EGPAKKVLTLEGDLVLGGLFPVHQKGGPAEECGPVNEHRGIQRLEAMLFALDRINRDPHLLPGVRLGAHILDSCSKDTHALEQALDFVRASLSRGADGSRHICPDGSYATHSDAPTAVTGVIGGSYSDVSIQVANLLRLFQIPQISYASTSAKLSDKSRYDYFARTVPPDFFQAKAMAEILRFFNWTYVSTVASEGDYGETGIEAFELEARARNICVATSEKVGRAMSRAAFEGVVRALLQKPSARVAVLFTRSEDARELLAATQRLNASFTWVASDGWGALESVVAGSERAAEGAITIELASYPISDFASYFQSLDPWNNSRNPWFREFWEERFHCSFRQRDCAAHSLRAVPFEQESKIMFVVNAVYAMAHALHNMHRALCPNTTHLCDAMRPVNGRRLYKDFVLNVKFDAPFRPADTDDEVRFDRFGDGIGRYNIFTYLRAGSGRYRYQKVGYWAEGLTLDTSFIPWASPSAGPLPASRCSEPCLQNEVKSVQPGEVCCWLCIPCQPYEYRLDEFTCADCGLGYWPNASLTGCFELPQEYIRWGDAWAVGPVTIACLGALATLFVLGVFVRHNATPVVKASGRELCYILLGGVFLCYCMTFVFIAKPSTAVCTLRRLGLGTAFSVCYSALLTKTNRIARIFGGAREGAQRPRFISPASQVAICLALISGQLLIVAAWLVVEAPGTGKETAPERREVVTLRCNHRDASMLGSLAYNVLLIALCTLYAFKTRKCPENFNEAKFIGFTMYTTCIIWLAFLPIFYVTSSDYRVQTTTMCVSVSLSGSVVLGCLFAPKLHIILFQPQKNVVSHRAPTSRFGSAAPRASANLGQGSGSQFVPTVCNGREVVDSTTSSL
Sequence of rat mGlu3 receptor (P31422 23-879): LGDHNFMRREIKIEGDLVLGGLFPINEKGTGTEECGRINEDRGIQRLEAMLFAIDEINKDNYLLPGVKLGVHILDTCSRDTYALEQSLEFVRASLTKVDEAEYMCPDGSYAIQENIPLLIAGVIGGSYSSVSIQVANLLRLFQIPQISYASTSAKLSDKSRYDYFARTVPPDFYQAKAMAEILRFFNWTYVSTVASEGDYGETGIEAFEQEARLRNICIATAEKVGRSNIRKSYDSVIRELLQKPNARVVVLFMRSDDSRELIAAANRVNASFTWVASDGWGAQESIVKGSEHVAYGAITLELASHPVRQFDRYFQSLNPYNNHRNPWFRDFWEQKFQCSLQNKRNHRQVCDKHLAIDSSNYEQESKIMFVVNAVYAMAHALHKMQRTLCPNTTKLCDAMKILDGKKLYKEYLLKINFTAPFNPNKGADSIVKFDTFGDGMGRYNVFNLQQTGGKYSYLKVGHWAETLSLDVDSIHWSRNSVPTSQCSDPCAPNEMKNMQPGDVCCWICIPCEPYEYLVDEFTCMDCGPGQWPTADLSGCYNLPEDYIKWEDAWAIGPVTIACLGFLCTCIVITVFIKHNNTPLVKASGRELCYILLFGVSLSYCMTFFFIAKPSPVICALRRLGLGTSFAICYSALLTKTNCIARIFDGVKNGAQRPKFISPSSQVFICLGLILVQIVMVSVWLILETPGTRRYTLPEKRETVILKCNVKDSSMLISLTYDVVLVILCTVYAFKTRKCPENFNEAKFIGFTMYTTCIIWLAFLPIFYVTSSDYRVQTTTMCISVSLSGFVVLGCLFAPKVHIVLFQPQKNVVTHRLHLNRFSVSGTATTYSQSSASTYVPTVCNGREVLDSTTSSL

Structure (SMILES)	EC50 (rat mGlu2 receptor; [3])	EC50 (rat mGlu2 receptor; [4])	EC50 (rat mGlu3 receptor)	Microsomal Stability, Percent Remaining @ 1 hour [1]	Plasma Stability, Percent Remaining @ 1 hour [2]	EC50 (rat mGlu2 receptor; [5])
O=C(O)c1cc(-c2cccc(-c3csc(-c4ccccc4)n3)c2)ccc1F [Example 1, 4-Fluoro-3′-(2-phenylthiazol-4-yl)biphenyl-3-carboxylic Acid]	0.33 µM	0.48 µM	1.21 µM	3%	93%	–
O=C(O)c1cc(F)cc(-c2cccc(-c3csc(-c4ccccc4)n3)c2)c1 [Example 9, 5-Fluoro-3′-(2-phenylthiazol-4-yl)biphenyl-3-carboxylic Acid]	0.64 µM	0.35 µM	> 10 µM	4%	98%	–
O=C(O)c1cc(-c2cccc(-c3nsc(-c4ccccc4)n3)c2)ccc1F [Example 38, 4-Fluoro-3′-(5-phenyl-1,2,4-thiadiazol-3-yl)biphenyl-3-carboxylic Acid]	0.1 µM	0.05 µM	0.52 µM	2%	65%	–
O=C(O)c1cc(F)cc(-c2cccc(-c3nc(-c4ccc(C(F)(F)F)nc4)cc(C(F)(F)F)n3)c2)c1 [Example 76, 5-Fluoro-3′-(4-(trifluoromethyl)-6-(6-(trifluoromethyl)pyridin-3-yl)pyrimidin-2-yl)biphenyl-3-carboxylic Acid]	1.53 µM	–	1.61 µM	95%	100%	0.09 µM
O=C(O)c1ccc(F)c(-c2cccc(-c3nc(-c4ccc(C(F)(F)F)nc4)cc(C(F)(F)F)n3)c2)c1 [Example 79, 6-Fluoro-3′-(4-(trifluoromethyl)-6-(6-(trifluoromethyl)pyridin-3-yl)pyrimidin-2-yl)biphenyl-3-carboxylic Acid]	0.83 µM	–	0.89 µM	82%	86%	0.09 µM
O=C(O)c1cc(-c2cccc(-c3nc(-c4ccccc4)cc(C(F)(F)F)n3)c2)ccc1F [Example 86, 4-Fluoro-3′-(4-phenyl-6-(trifluoromethyl)pyrimidin-2-yl)biphenyl-3-carboxylic Acid]	0.8 µM	–	0.92 µM	100%	100%	0.04 µM
COc1ccc(-c2cc(C(F)(F)F)nc(-c3cccc(-c4ccc(F)c(C(=O)O)c4)c3)n2)cc1 [Example 87, 4-Fluoro-3′-(4-(4-methoxyphenyl)-6-(trifluoromethyl)pyrimidin-2-yl)biphenyl-3-carboxylic Acid]	1.07 µM	–	1 µM	92%	97%	0.06 µM
O=C(O)c1cc(F)cc(-c2cccc(-c3nc(-c4ccco4)cc(C(F)(F)F)n3)c2)c1 [Example 89, 5-Fluoro-3′-(4-(furan-2-yl)-6-(trifluoromethyl)pyrimidin-2-yl)biphenyl-3-carboxylic Acid]	1.24 µM	–	2.25 µM	82%	100%	0.14 µM
O=C(O)c1ccc(F)c(-c2cccc(-c3nc(-c4ccoc4)cc(C(F)(F)F)n3)c2)c1 [Example 114, 6-Fluoro-3′-(4-(furan-3-yl)-6-(trifluoromethyl)pyrimidin-2-yl)biphenyl-3-carboxylic Acid]	0.4 µM	–	1.36 µM	66%	93%	–
O=C(O)c1cc(-c2cccc(-c3nc(-c4ccsc4)cc(C(F)(F)F)n3)c2)ccc1F [Example 122, 4-Fluoro-3′-(4-(thiophen-3-yl)-6-(trifluoromethyl)pyrimidin-2-yl)-[1,1′-biphenyl]-3-carboxylic Acid]	–	–	0.53 µM	83%	83%	0.07 µM
Cc1cc2c(cc1C(F)(F)F)NC(=O)CC(c1cccc(Sc3ncccn3)c1)=N2 [Example 136, 7-Methyl-4-(3-(pyrimidin-2-ylthio)phenyl)-8-(trifluoromethyl)-1H-benzo[b][1,4]diazepin-2(3H)-one]	0.88 µM	–	0.81 µM	90%	99%	0.04 µM
CCOc1ccc(-c2ccc3c(c2)NC(=O)CC(c2ccnc(Cl)c2)=N3)cc1 [Example 192, 4-(2-Chloropyridin-4-yl)-8-(4-ethoxyphenyl)-1,3-dihydro-2H-benzo[b][1,4]diazepin-2-one]	> 10 µM	–	> 10 µM	–	–	–
Cc1cccc(-c2ccc3c(c2)NC(=O)CC(c2ccnc(Cl)c2)=N3)c1 [Example 193, 4-(2-Chloropyridin-4-yl)-8-(m-tolyl)-1,3-dihydro-2H-benzo[b][1,4]diazepin-2-one]	> 10 µM	–	> 10 µM	–	–	0.95 µM
O=C1CC(c2ccnc(Br)c2)=Nc2ccc(-c3ccc(C(F)(F)F)cc3C(F)(F)F)cc2N1 [Example 194, 8-(2,4-Bis(trifluoromethyl)phenyl)-4-(2-bromopyridin-4-yl)-1,3-dihydro-2H-benzo[b][1,4]diazepin-2-one]	> 10 µM	–	> 10 µM	–	–	3.47 µM
COc1ccc(-c2ccc3c(c2)NC(=O)CC(c2ccnc(Cl)c2)=N3)cc1OC [Example 195, 4-(2-Chloropyridin-4-yl)-8-(3,4-dimethoxyphenyl)-1,3-dihydro-2H-benzo[b][1,4]diazepin-2-one]	3.83 µM	–	1.39 µM	–	–	2.62 µM
Cc1cc(Cl)ccc1-c1ccc2c(c1)NC(=O)CC(c1ccnc(Cl)c1)=N2 [Example 196, 8-(4-Chloro-2-methylphenyl)-4-(2-chloropyridin-4-yl)-1,3-dihydro-2H-benzo[b][1,4]diazepin-2-one]	3.59 µM	–	2.94 µM	–	–	0.6 µM
O=C1CC(c2ccnc(Cl)c2)=Nc2ccc(-c3ccccc3)cc2N1 [Example 197, 4-(2-Chloropyridin-4-yl)-8-phenyl-1,3-dihydro-2H-benzo[b][1,4]diazepin-2-one]	> 10 µM	–	> 10 µM	–	–	–
O=C1CC(c2ccnc(-c3ccccc3)c2)=Nc2ccc(C(F)(F)F)cc2N1 [Example 198, 4-(2-Phenylpyridin-4-yl)-8-(trifluoromethyl)-1,3-dihydro-2H-benzo[b][1,4]diazepin-2-one]	> 10 µM	–	0.46 µM	–	–	0.26 µM
O=C1CC(c2ccnc(Cl)c2)=Nc2ccc(-c3ccc(Br)nc3)cc2N1 [Example 199, 8-(6-Bromopyridin-3-yl)-4-(2-chloropyridin-4-yl)-1,3-dihydro-2H-benzo[b][1,4]diazepin-2-one]	1.7 µM	–	1.82 µM	–	–	4.27 µM
O=C1CC(c2ccnc(-c3ccccc3F)c2)=Nc2ccc(C(F)(F)F)cc2N1 [Example 200, 4-(2-(2-Fluorophenyl)pyridin-4-yl)-8-(trifluoromethyl)-1,3-dihydro-2H-benzo[b][1,4]diazepin-2-one]	> 10 µM	–	0.75 µM	–	–	0.22 µM
O=C1CC(c2ccnc(Cl)c2)=Nc2ccc(-c3ccc(C(F)(F)F)cc3F)cc2N1 [Example 201, 4-(2-Chloropyridin-4-yl)-8-(2-fluoro-4-(trifluoromethyl)phenyl)-1,3-dihydro-2H-benzo[b][1,4]diazepin-2-one]	> 10 µM	–	1.61 µM	–	–	0.52 µM
Cc1cc2c(cc1C(F)(F)F)NC(=O)CC(c1cccc(C#Cc3ccccc3)c1)=N2 [Example 202, 7-Methyl-4-(3-phenylethynyl-phenyl)-8-trifluoromethyl-1,3-dihydro-benzo[b][1,4]diazepin-2-one]	> 10 µM	–	> 10 µM	–	–	> 10 µM
Cc1cc2c(cc1C(F)(F)F)NC(=O)CC(c1cccc(C#CCO)c1)=N2 [Example 203, 4-[3-(3-Hydroxy-prop-1-ynyl)-phenyl]-7-methyl-8-trifluoromethyl-1,3-dihydro-benzo[b][1,4]diazepin-2-one]	0.65 µM	–	0.39 µM	–	–	0.02 µM
